According to the supplement of paper PMC10307832:

Key:
Experiment in all cases: relative viability (nuclei count vs DMSO), 5 days (fraction); higher = more cells survive
[1] = compound: COC1=C(C=C(C=C1)C2=CC3=NC=CN3C(=N2)NC4=C(C=CC=N4)C(=O)N)OC [BAY61-3606] + O=C(CCCCCCC(=O)Nc1ccccc1)NO [Vorinostat] (partner 1 µM)
In short: (§1)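 Lung cancer cell lines, seeded in 1536-well plates, were treated the following day by pin tool with a single drug or with five library-drug doses (not always all listed) in √10 steps on top of a fixed anchor-drug dose. Cells were fixed and nuclei stained in one step after 5 days, and nuclei were counted. Relative viability is the nuclei count for treated wells divided by that for vehicle wells, reported as medians of duplicate plates.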

[2] = compound: COc1cccc2c1C(=O)c1c(O)c3c(c(O)c1C2=O)C[C@@](O)(C(=O)CO)C[C@@H]3O[C@H]1C[C@H](N)[C@H](O)[C@H](C)O1 [Doxorubicin] + CCNC(=O)c1noc(-c2cc(C(C)C)c(O)cc2O)c1-c1ccc(CN2CCOCC2)cc1 [Luminespib] (partner 0.01 µM)
In short: as §1

[3] = compound: COc1cccc2c1C(=O)c1c(O)c3c(c(O)c1C2=O)C[C@@](O)(C(=O)CO)C[C@@H]3O[C@H]1C[C@H](N)[C@H](O)[C@H](C)O1 [Doxorubicin] + O=C(c1cc(Cc2n[nH]c(=O)c3ccccc23)ccc1F)N1CCN(C(=O)C2CC2)CC1 [Olaparib] (partner 8 µM)
In short: as §1

[4] = compound: COc1cccc2c1C(=O)c1c(O)c3c(c(O)c1C2=O)C[C@@](O)(C(=O)CO)C[C@@H]3O[C@H]1C[C@H](N)[C@H](O)[C@H](C)O1 [Doxorubicin] + Cc1cc(Nc2cc(N3CCN(C)CC3)nc(Sc3ccc(NC(=O)C4CC4)cc3)n2)n[nH]1 [Tozasertib] (partner 0.1 µM)
In short: as §1

| Cell Line | relative viability ([1]; first compound 0.02 µM) | relative viability ([1]; first compound 0.06325 µM) | relative viability ([1]; first compound 0.2 µM) | relative viability ([1]; first compound 0.6325 µM) | relative viability ([1]; first compound 2 µM) | relative viability ([2]; first compound 0.001 µM) | relative viability ([2]; first compound 0.003162 µM) | relative viability ([2]; first compound 0.01 µM) | relative viability ([2]; first compound 0.03162 µM) | relative viability ([2]; first compound 0.1 µM) | relative viability ([3]; first compound 0.001 µM) | relative viability ([3]; first compound 0.003162 µM) | relative viability ([3]; first compound 0.01 µM) | relative viability ([3]; first compound 0.03162 µM) | relative viability ([3]; first compound 0.1 µM) | relative viability ([4]; first compound 0.001 µM) | relative viability ([4]; first compound 0.003162 µM) | relative viability ([4]; first compound 0.01 µM) | relative viability ([4]; first compound 0.03162 µM) | relative viability ([4]; first compound 0.1 µM) |
| --- | --- | --- | --- | --- | --- | --- | --- | --- | --- | --- | --- | --- | --- | --- | --- | --- | --- | --- | --- | --- |
| NCI-H661 | 0.78 | 0.825 | 0.773 | 0.864 | 0.779 | 0.915 | 0.909 | 0.858 | 0.574 | 0.378 | 0.674 | 0.881 | 0.681 | 0.542 | 0.52 | 0.37 | 0.354 | 0.349 | 0.339 | 0.388 |
| NCI-H650 | 0.466 | 0.414 | 0.428 | 0.355 | 0.35 | 0.694 | 0.75 | 0.78 | 0.565 | 0.627 | 0.418 | 0.494 | 0.38 | 0.334 | 0.296 | 0.908 | 0.736 | 0.784 | 0.582 | 0.63 |
| EKVX | 0.84 | 0.685 | 0.658 | 0.783 | 0.775 | 0.784 | 1.02 | 0.828 | 0.847 | 0.834 | 0.862 | 0.882 | 0.767 | 0.849 | 0.734 | 0.35 | 0.434 | 0.383 | 0.415 | 0.342 |
| SK-MES-1 | 1.14 | 1.13 | 1.05 | 1.11 | 0.86 | 0.771 | 0.618 | 0.487 | 0.199 | 0.151 | 0.659 | 0.534 | 0.266 | 0.2 | 0.146 | 0.856 | 0.867 | 0.583 | 0.211 | 0.162 |
| EPLC-272H | 0.402 | 0.401 | 0.579 | 0.339 | 0.37 | 0.209 | 0.262 | 0.339 | 0.259 | 0.253 | 0.767 | 1.01 | 0.832 | 0.453 | 0.261 | 0.423 | 0.401 | 0.238 | 0.26 | 0.506 |
| NCI-H1650 | 0.611 | 0.551 | 0.5 | 0.665 | 0.61 | 0.201 | 0.182 | 0.203 | 0.223 | 0.182 | 0.764 | 0.865 | 0.401 | 0.179 | 0.127 | 0.411 | 0.32 | 0.261 | 0.207 | 0.111 |
| NCI-H1395 | 0.736 | 0.705 | 0.595 | 0.705 | 0.706 | 0.674 | 0.765 | 0.476 | 0.697 | 0.648 | 0.445 | 0.506 | 0.466 | 0.417 | 0.4 | 0.791 | 0.724 | 0.89 | 0.65 | 0.799 |
| NCI-H2228 | 0.713 | 0.594 | 0.663 | 0.634 | 0.571 | 0.208 | 0.139 | 0.2 | 0.151 | 0.135 | 0.579 | 0.717 | 0.682 | 0.249 | 0.179 | 0.276 | 0.269 | 0.21 | 0.125 | 0.107 |
| NCI-H2023 | 0.856 | 0.671 | 0.638 | 0.82 | 0.468 | 0.765 | 0.677 | 0.243 | 0.0918 | 0.0632 | 0.454 | 0.336 | 0.19 | 0.0859 | 0.0625 | 0.351 | 0.378 | 0.294 | 0.157 | 0.0799 |
| NCI-H522 | 0.896 | 0.869 | 0.839 | 0.733 | 0.661 | – | 1.21 | 1.12 | 0.885 | 1.15 | 0.524 | 0.658 | 0.678 | 0.638 | 0.589 | 0.581 | 0.577 | 0.512 | 0.488 | 0.609 |
| NCI-H322M | 0.985 | 0.872 | 0.974 | 0.866 | 0.74 | 0.635 | 0.846 | 0.858 | 0.401 | 0.357 | 0.731 | 0.765 | 0.745 | 0.542 | 0.508 | 0.518 | 0.506 | 0.518 | 0.437 | 0.383 |
| HCC-827 | 0.858 | 0.828 | 1.04 | 0.85 | 0.941 | 0.555 | 0.379 | 0.602 | 0.573 | 0.566 | 0.653 | 0.65 | 0.66 | 0.62 | 0.579 | 0.45 | 0.391 | 0.407 | 0.416 | 0.432 |
| LU99A | 0.548 | 0.399 | 0.48 | 0.434 | 0.401 | 0.226 | 0.228 | 0.268 | 0.235 | 0.258 | 0.235 | 0.264 | 0.287 | 0.274 | 0.253 | 0.298 | 0.28 | 0.287 | 0.281 | 0.309 |
| LC-2-ad | 0.821 | 0.743 | 0.588 | 0.707 | 0.721 | 0.889 | 0.696 | 0.642 | 0.421 | 0.295 | 0.343 | 0.679 | 0.707 | 0.707 | 0.696 | 0.455 | 0.402 | 0.401 | 0.246 | 0.239 |
| NCI-H460 | 0.786 | 0.862 | 0.709 | 0.65 | 0.447 | 0.0376 | 0.0412 | 0.0317 | 0.0182 | 0.0137 | 0.366 | 0.419 | 0.346 | 0.114 | 0.0883 | 0.419 | 0.388 | 0.264 | 0.185 | 0.165 |
| HOP-62 | – | 0.544 | 0.538 | 0.667 | 0.397 | 0.906 | 0.942 | 0.896 | 0.958 | 0.931 | 0.396 | 0.56 | 0.365 | 0.42 | 0.296 | 0.376 | 0.414 | 0.402 | 0.352 | 0.405 |
